Source: US8507459B2, “Use of adenosine aspartate for the preparation of pharmaceutical products for the treatment of liver cancer” (Universidad Nacional Autonnoma de Mexico, priority 2007, dated 2013)

Assays:
[1] = tested on: preneoplastic lesions in rat liver; assay: Resistant hepatocyte model, adenosine aspartate given after cancer induction, sacrifice at month 12 (Example 1); assay type: in vivo
Protocol: (§1) For the experimental phase in its first stage, male rats of the Fisher 344 strain were used, having 180 to 200 grams body weight, which were bred and kept in an Animal Breeding and Experimentation Unit of the Advanced Research and Studies Center, in a controlled environment with 12-hour cycles of light/darkness at a temperature of 23° C., in hygiene conditions and with free access to food and water. The preneoplastic lesion outgrowth in the liver was induced to the rats by using the resistant hepatocyte model (Semple-Roberts E, Hayes M A, Armstrong D, Becker R A, Racz W J, and Farber E. (1987) Alternative methods of selecting rat hepatocellular nodules resistant to 2-acetylaminofluorence. Int, J. Cancer. 40:643-6451) modified by our research group (Carrasc-Legleu C E, Marquez-Rosado L, Fattel-Fazenda S, Arce-PopocaE, Pérez-Carreón JI, VIIIa-Treviño S. (2004) Chemoprotective effect of caffeic acid phenethyl ester on promotion in a medium-term rat hepatocarcinogenesis assay. Int J. Cancer. 108:488-92).
As can be observed in this figure, this second experiment (IFC) consisted first in administering by intraperitoneal route, one single dose of 200 mg/kg of weight of DEN as carcinogen primer. Additionally, on days 7, 8, and 9 after the beginning, a dose of 20 mg/kg of weight of 2AAF was administered as carcinogen promoter, and on day 10 after the beginning, rats underwent an HP. […]

[2] = tested on: preneoplastic lesions in rat liver; assay: Resistant hepatocyte model, 25 days, histochemical GGT staining of liver sections (Example 2); assay type: in vivo
Protocol: as §1
On days 7, 8, and 9 after the beginning, a dose of 20 mg/kg of weight of 2-acetylaminofluorene (hereinafter called as 2AAF) was administered as carcinogen promoter, and on day 10 after the beginning, rats underwent a partial hepatectomy (HP) of 70% of hepatic mass (the administration of these products along with the hepatectomy is taken into consideration as the entire treatment for this experiment). Lastly, the rats were sacrificed at day 25.
In order to show the beneficial effect of adenosine aspartate in preneoplastic lesions, 6 different experimental groups were designed, as shown in FIG. 2.
The first group (TC), having 8 rats, was administered with the entire treatment; this group was used as positive control of the preneoplastic lesion outgrowth. The second group (IFC-1), having 8 animals, was administered with a pharmacologically effective dose of adenosine aspartate, which for this case, was 50 mg/kg of body weight dissolved in a physiological saline solution, pH 7.4 with 0.5% carboxymethyl-cellulose, replacing DEN carcinogen primer. The third group (IFC-P), having 8 animals, was administered with a pharmacologically effective dose of adenosine aspartate, which for this case, was 50 mg/kg of body weight dissolved in a physiological saline solution, pH 7.4 with 0.5% carboxymethyl-cellulose, replacing 2-AAF carcinogen promoter. In the fourth group (IFC-IP), with 7 animals, both the DEN carcinogen primer and the 2AAF carcinogen promoter were substituted by adenosine aspartate in pharmacologically effective doses, which in this case, was 50 mg/kg of body weight dissolved in a physiological saline solution, pH 7.4 with 0.5% carboxymethyl-cellulose. The fifth group (C-2AAF), having 6 animals, was administered with 2AAF only, being used as control of the administration of adenosine aspartate at the beginning of the second group (IFC-I. Finally, the sixth group(C-DEN), having 7 animals, which received DEN product only, was used as control of the administration of adenosine aspartate in the promotion of group 3 (IFC-P).
When ending the cycle, all groups underwent a partial hepatectomy. […] 17(8):517-526.) Briefly, sections were set in absolute ethanol for 10 min at −20° C.; subsequently, they were treated with a solution that contains 125 μg/ml of γ-glutamil-4-methoxi-2-naphthylamide (GMNA), 0.5 mg/ml of glycyl-glycine and 0.5 mg/ml of Fast Blue in 100 mM of Tris base and they were incubated for 30 minutes at room temperature; finally, they were washed with saline solution, the precipitated were set with 100 mM cupric sulfate solution. All reagents acquired from Sigma Chemical Co. in St Louis, Mo., USA. The enzyme activity was expressed in areas stained with dark red color. […]

cirrhosis of the liver = conditions: cited from earlier work
alpha-fetoprotein = conditions: cirrhotic patients with slightly high levels; cited from earlier work
[3] = group IFC-I: adenosine aspartate 50 mg/kg as primer replacing DEN, day 25
[4] = group IFC-IP: adenosine aspartate 50 mg/kg as primer and promoter replacing DEN and 2AAF, day 25
[5] = group IFC-P: adenosine aspartate 50 mg/kg as promoter replacing 2AAF, day 25

adenosine aspartate
effect on already installed preneoplastic lesions ([1]; 60 mg/kg every 3 days from month 8 until month 12): reversal effect | alterations of cancer or preneoplastic lesions ([1]; administered after a product used to induce cancer, 60 mg/kg every 3 days from month 8): no suggestive alterations of cancer or preneoplastic lesions were present | effect over the preneoplastic lesion outgrowth compared with respective control groups ([2]; as primer (IFC-I) or as promoter (IFC-P), vs C-2AAF and C-DEN): no effect | average of positive GGT foci/cm^2 regarding the control group with the entire treatment (TC = 100%) [2, 3]: 1.3% | positive GGT area regarding the control group with the entire treatment (TC = 100%) [2, 3]: 0.4% | positive GGT arborescences in liver ([2]; group IFC-I: as primer): some livers presented positive GGT arborescences | number of positive GGT foci/cm^2 regarding the control group with the entire treatment (TC = 100%) [2, 4]: 0.2% | positive GGT area regarding the control group with the entire treatment (TC = 100%) [2, 4]: 0.08% | development of preneoplastic lesions ([2]; group IFC-IP: as primer and as promoter): no preneoplastic lesions were developed | average of positive GGT foci/cm^2 regarding the control group with the entire treatment (TC = 100%) [2, 5]: 7.1% | positive GGT area regarding the control group with the entire treatment (TC = 100%) [2, 5]: 4.6% | positive GGT arborescences and preneoplastic lesions in liver ([2]; group IFC-P: as promoter): positive GGT arborescences were not observed but small preneoplastic lesions were observed | alterations (number and area) compared with control groups C-2AAF and C-DEN ([2]; groups IFC-I and IFC-P): lower in number as well as in area | accumulation of collagen (cirrhosis of the liver): reducing the accumulation of collagen | serum levels of alpha-fetoprotein (alpha-fetoprotein): reduces serum levels of alpha-fetoprotein
